We go through one molecule from patent US6015820A, “4-Aryl-thio-pyridin-2(1H)-ones, medicines containing them and their uses in the treatment of illnesses linked to HIV” (priority 1995, dated 2000).

Where two headings read alike, the source gives them in different places.

One test relates to HIV-1 LAI. Briefly: anti-HIV-1 activity: replication of HIV-1 LAI on CEM-SS cells. Type of test: cell-based. A digest of the protocol:
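CEM-SS cells were infected with 100 TCID50 virus for 30 min, washed, then cultured 5 days with test compound at varied concentrations. Virus production was measured as reverse transcriptase activity in culture supernatant, and IC50 was derived by median-effect dose-effect analysis.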

The test system of test [1] is HIV-1 resistant to Nevirapine (N119). Briefly: microbe, parasite or virus in culture. Type of test: cell-based. Conditions: for IC50: Human immunodeficiency virus 1, CEM-SS. As to the method:
The effects of the compounds were evaluated on the replication of HIV-1 (see Table 2) on CEM-SS cells (cell lines of the lymphocytic lineage) strongly infected with HIV-1 LAI as described by Moog et al. (Antiviral Research (1994), 24, 275-288). The CEM-SS and the HIV-1 resistant to Nevirapine (N119) carrying a point mutation at codon 181 of the IT, were supplied respectively by P. NARA and D. RICHMAN through the intermediary of the AIDS Research and Reference Reagent Program, Division of AIDS, NIAID, NIH (USA) (Catalogue references : No. 776 and No. 1392).
The virus production was measured by quantifying the activity of the inverse transcriptase associated with viral particles released into the culture supernatant. In short, cells were infected with 100 TCID50 for 30 minutes; after adsorption of the virus, unbound particles were removed by two washings and the cells were cultivated in the presence of different concentrations of the compounds tested for 5 days before determining the viral production. The concentration inhibiting 50% of the viral multiplication (IC50) came from the computer plot of the median effect of the dose effect results (Chou et al. Elsevier Science Publishers, Cambridge U.K. (1985), 19-28).

Turning to `CCc1c(C)[nH]c(=O)c([N+](=O)[O-])c1Sc1cc(C)cc(C)c1` [Compound 7c, 5-ethyl-6-methyl-3-nitro-4-(3', 5'-dimethylphenyl)thio-pyridin-2(1H)-one], the IC50 in the test on HIV-1 LAI (Human immunodeficiency virus 1, 120 h, Table 2, HIV-1 LAI, CEM-SS cells, 5 days, read-out: IC50, anti-HIV-1 activity) is 6 nM; in the test on HIV-1 LAI (Human immunodeficiency virus 1, CEM-SS, Table 4, HIV-1 (LA1)/CEMSS, read-out: IC50) it was < 0.4 nM; in test [1], 23 nM; in test [1] (read-out: IC50, strain resistant to Nevirapine) it was 260 nM. Besides, the “SI (selectivity index)” value in the test on HIV-1 LAI (Table 2, HIV-1 LAI, CEM-SS cells) is recorded as > 1666; in test [1] (Table 3, strain resistant to Nevirapine), > 38.

As a reminder, the IC50 is the concentration at which inhibition is half-maximal.
